The values below come from PubChem BioAssay (NCI).

Each structure is given as a SMILES string.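 Dose response: 5 concentrations. Exposure: 48 h. Format: 96-well plates. Endpoint: linear interpolation; highest concentration if not reached. Definition used: TGI = concentration required for complete inhibition of growth.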

Among the test systems are NCI/ADR-RES ovarian; SW-620 colon; OVCAR-8 ovarian; SN12C renal; COLO 205 colon; HT29 colon; SK-MEL-2 melanoma; SNB-19 CNS; HCC-2998 colon; CCRF-CEM leukemia; HL-60(TB) leukemia; SK-OV-3 ovarian; SK-MEL-28 melanoma; SF-295 CNS; K-562 leukemia; RXF 393 renal; MOLT-4 leukemia; OVCAR-3 ovarian; NCI-H23 lung; HCT-116 colon.
Common to all, as to assay: NCI tumour cell line growth inhibition, 48 h

For `Cc1ccc(C2N=C(N)NC3=C2CCOc2c3ccc3ccccc23)cc1` (configuration not stated), the TGI was > 60.5 µM with NCI/ADR-RES ovarian; > 100 µM in the test with SW-620 colon; > 70.5 µM in the test on OVCAR-8 ovarian; > 72 µM with SN12C renal; > 61.6 µM in the test on COLO 205 colon; > 66.7 µM in the test on HT29 colon. Further, the TGI in the test on SK-MEL-2 melanoma was > 100 µM; with SNB-19 CNS it was > 100 µM; in the test on HCC-2998 colon it was 76.4 µM; with CCRF-CEM leukemia, 3.71 µM; with HL-60(TB) leukemia, 19 µM; in the test with SK-OV-3 ovarian, > 100 µM. Further, the TGI in the test with SK-MEL-28 melanoma is > 100 µM; in the test on SF-295 CNS, 62.2 µM; in the test on K-562 leukemia it was > 44.1 µM; in the test on RXF 393 renal, 97.9 µM; in the test on MOLT-4 leukemia, > 74.8 µM; in the test on OVCAR-3 ovarian, 21 µM. Besides, the TGI in the test on NCI-H23 lung is > 79.5 µM; in the test on HCT-116 colon, 12.3 µM.

Regarding `CC1CCCCN1CC(=O)c1ccc2c(c1)Sc1ccccc1O2` (configuration not stated), the TGI is 35.5 µM with NCI/ADR-RES ovarian; 42.4 µM with SW-620 colon; 30.8 µM with OVCAR-8 ovarian; 37.9 µM in the test on SN12C renal; > 100 µM with COLO 205 colon; 22.7 µM with HT29 colon. Further, the TGI came out at 32.4 µM in the test on SK-MEL-2 melanoma; 36 µM in the test on SNB-19 CNS; 41.3 µM in the test on HCC-2998 colon; 44.4 µM in the test on CCRF-CEM leukemia; 47 µM in the test on HL-60(TB) leukemia; 31.6 µM in the test with SK-OV-3 ovarian. In addition, the TGI with SK-MEL-28 melanoma was 33.1 µM; in the test with SF-295 CNS, 33 µM; in the test with K-562 leukemia, > 100 µM; in the test on RXF 393 renal it was 31.1 µM; in the test on MOLT-4 leukemia it was > 100 µM; in the test on OVCAR-3 ovarian, 27.8 µM. Further, the TGI was 30.3 µM in the test on NCI-H23 lung and 30.7 µM in the test on HCT-116 colon.

With `c1ccc(-c2nnc(SCc3c[nH]c4ccccc34)n2-c2ccccc2)cc1`, the TGI with NCI/ADR-RES ovarian, in the test on SW-620 colon, in the test with OVCAR-8 ovarian, with SN12C renal, in the test with COLO 205 colon and with HT29 colon was > 100 µM in each case. Further, the TGI in the test on SK-MEL-2 melanoma, in the test on SNB-19 CNS, in the test on HCC-2998 colon, in the test on CCRF-CEM leukemia, in the test with HL-60(TB) leukemia and in the test with SK-OV-3 ovarian was > 100 µM throughout. Also, the TGI in the test with SK-MEL-28 melanoma was > 100 µM; with SF-295 CNS, > 100 µM; in the test on K-562 leukemia it was > 100 µM; in the test with RXF 393 renal, 52.5 µM; in the test with MOLT-4 leukemia, > 100 µM; in the test on OVCAR-3 ovarian, > 100 µM. Besides, the TGI in the test on NCI-H23 lung and in the test on HCT-116 colon was > 100 µM throughout.

For the molecule `CSc1c(C(=O)Nc2ccc(C)cc2)c(N)n(N)c(=O)c1C#N`, the TGI with NCI/ADR-RES ovarian, in the test on SW-620 colon, in the test on OVCAR-8 ovarian, in the test with SN12C renal, in the test with COLO 205 colon and in the test with HT29 colon was > 100 µM each time. The TGI in the test on SK-MEL-2 melanoma, in the test on SNB-19 CNS, in the test with HCC-2998 colon, with CCRF-CEM leukemia, in the test with HL-60(TB) leukemia and with SK-OV-3 ovarian was > 100 µM in each case. Besides, the TGI in the test on SK-MEL-28 melanoma, in the test on K-562 leukemia, in the test with RXF 393 renal, in the test on MOLT-4 leukemia, with OVCAR-3 ovarian and in the test on NCI-H23 lung was > 100 µM each time. Moreover, the TGI with HCT-116 colon was > 100 µM.

In the case of `COC(=O)/C=C(/C(=O)OC)c1cc2ccc3c([nH]c4ccccc43)c(C)c-2c1`, the TGI was > 100 µM with NCI/ADR-RES ovarian; 27.1 µM in the test on SW-620 colon; 25.2 µM in the test with OVCAR-8 ovarian; 27 µM in the test on SN12C renal; 3.3 µM in the test on COLO 205 colon; 8.9 µM in the test with HT29 colon. The TGI in the test on SK-MEL-2 melanoma worked out at 26.8 µM; with SNB-19 CNS, 23.2 µM; in the test on HCC-2998 colon, 13 µM; in the test on CCRF-CEM leukemia, 10.8 µM; in the test on HL-60(TB) leukemia, 12.5 µM; in the test with SK-OV-3 ovarian it was 36.9 µM. For the same molecule, the TGI in the test on SK-MEL-28 melanoma was 30.2 µM; with SF-295 CNS, 16.4 µM; in the test with K-562 leukemia it was 7.09 µM; in the test on RXF 393 renal, > 100 µM; in the test on MOLT-4 leukemia it was 11.5 µM; in the test with OVCAR-3 ovarian it was 12 µM. Besides, the TGI with NCI-H23 lung is 24.7 µM; in the test on HCT-116 colon, 16.3 µM.

`CCOC(=O)NC(C(=O)OCC)(N1CCN(c2cc3c(cc2F)c(=O)c(C(=O)O)cn3CC)CC1)C(F)(F)F` (configuration not stated): the TGI with NCI/ADR-RES ovarian was > 100 µM; in the test with SW-620 colon, > 100 µM; in the test with OVCAR-8 ovarian it was 34 µM; with SN12C renal, > 100 µM; in the test with COLO 205 colon, > 100 µM; with HT29 colon, > 100 µM. Also, the TGI in the test on SK-MEL-2 melanoma, with SNB-19 CNS, in the test on HCC-2998 colon, in the test with CCRF-CEM leukemia, in the test on HL-60(TB) leukemia and with SK-OV-3 ovarian was > 100 µM throughout. The TGI in the test on SK-MEL-28 melanoma was 0.533 µM; with SF-295 CNS, > 100 µM; in the test on K-562 leukemia, > 100 µM; in the test with RXF 393 renal, > 100 µM; in the test on MOLT-4 leukemia, > 100 µM; in the test with OVCAR-3 ovarian it was > 100 µM. For the same molecule, the TGI in the test with NCI-H23 lung and in the test on HCT-116 colon was > 100 µM throughout.

With `C[n+]1c2ccccc2n2c3ccccc3c(NCCc3ccccn3)c(C#N)c21`, the TGI was > 60 µM in the test on NCI/ADR-RES ovarian; 3.24 µM with SW-620 colon; 5.88 µM with COLO 205 colon; > 100 µM in the test with HT29 colon; 7.73 µM in the test on SK-MEL-2 melanoma; > 26.8 µM with SNB-19 CNS. In addition, the TGI in the test on HCC-2998 colon was 1.24 µM; in the test on CCRF-CEM leukemia it was 9.11 µM; with HL-60(TB) leukemia, 7.9 µM; in the test on SK-OV-3 ovarian it was 17.8 µM; with SK-MEL-28 melanoma it was 5.51 µM; with SF-295 CNS it was 15.9 µM. The TGI in the test on K-562 leukemia was > 100 µM; in the test with RXF 393 renal it was 4.62 µM; with MOLT-4 leukemia, > 22.5 µM; in the test with OVCAR-3 ovarian, > 25.7 µM; in the test with NCI-H23 lung it was 11 µM; in the test on HCT-116 colon it was 11.8 µM.
